From patent publication US12516039B2, “N-linked isoquinoline amides as LRRK2 inhibitors, pharmaceutical compositions, and uses thereof” (Merck Sharp & Dohme LLC, priority 2020, dated 2026)

The compounds below were run against T1, GST-tagged truncated human mutant G2019S LRRK2 (Homo sapiens, UniProt Q5S007, G2019S) (assay: LRRK2 G2019S Km ATP LanthaScreen assay). Settings: 134 μM ATP (Km ATP), LRRKtide substrate, mean of several tests.
T1 construct: GST-tagged truncated human mutant G2019S LRRK2; purchased Life Technologies Corporation (Carlsbad, CA)
T1 sequence (Q5S007 970-2527 G2019S limits assumed): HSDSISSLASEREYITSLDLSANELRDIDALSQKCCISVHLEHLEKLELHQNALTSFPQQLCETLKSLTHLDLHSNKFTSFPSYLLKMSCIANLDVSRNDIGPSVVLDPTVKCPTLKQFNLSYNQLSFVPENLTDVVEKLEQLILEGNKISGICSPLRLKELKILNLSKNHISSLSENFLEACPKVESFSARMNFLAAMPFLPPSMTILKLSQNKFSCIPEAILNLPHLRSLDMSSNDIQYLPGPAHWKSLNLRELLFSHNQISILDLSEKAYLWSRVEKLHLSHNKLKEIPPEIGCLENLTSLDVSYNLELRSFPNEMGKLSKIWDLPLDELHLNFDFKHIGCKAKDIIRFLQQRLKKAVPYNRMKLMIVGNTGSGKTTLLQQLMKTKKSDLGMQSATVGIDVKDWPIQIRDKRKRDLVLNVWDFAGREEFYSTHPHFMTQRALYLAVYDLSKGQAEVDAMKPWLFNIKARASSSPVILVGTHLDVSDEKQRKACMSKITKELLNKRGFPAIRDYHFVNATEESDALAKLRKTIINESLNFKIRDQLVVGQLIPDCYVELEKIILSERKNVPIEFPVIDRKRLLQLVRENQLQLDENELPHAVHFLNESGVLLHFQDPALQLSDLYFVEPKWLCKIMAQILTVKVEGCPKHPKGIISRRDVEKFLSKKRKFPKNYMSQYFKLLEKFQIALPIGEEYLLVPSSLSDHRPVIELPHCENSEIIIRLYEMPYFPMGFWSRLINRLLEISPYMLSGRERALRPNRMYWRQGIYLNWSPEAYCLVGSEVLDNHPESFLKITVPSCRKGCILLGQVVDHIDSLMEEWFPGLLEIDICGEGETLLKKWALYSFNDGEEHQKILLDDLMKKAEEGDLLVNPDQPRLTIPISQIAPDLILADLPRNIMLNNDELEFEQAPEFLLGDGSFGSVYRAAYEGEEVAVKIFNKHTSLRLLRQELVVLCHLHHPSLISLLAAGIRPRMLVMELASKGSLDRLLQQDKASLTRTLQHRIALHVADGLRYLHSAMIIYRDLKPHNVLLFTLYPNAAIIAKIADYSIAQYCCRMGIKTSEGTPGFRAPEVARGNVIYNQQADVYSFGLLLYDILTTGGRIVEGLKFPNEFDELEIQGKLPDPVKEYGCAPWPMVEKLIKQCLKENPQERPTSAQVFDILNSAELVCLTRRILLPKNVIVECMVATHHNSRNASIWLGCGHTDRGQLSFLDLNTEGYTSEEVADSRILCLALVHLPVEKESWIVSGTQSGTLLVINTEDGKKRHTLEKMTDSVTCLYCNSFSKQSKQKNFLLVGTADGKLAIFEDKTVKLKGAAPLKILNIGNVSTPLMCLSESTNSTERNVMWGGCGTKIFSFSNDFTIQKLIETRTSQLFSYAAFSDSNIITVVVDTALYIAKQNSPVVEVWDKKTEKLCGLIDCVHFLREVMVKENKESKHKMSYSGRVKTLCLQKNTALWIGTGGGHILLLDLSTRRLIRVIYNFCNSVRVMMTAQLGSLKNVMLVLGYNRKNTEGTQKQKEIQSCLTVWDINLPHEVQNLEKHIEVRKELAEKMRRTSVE
Assay type: biochemical
Protocol: Unless otherwise noted, all reactions are magnetically stirred. Unless otherwise noted, when diethyl ether is used in the experiments described below, it is Fisher ACS certified material and is stabilized with BHT. Unless otherwise noted, “concentrated” and/or “solvent removed under reduced pressure” means evaporating the solvent from a solution or mixture using a rotary evaporator or vacuum pump. Unless otherwise noted, flash chromatography is carried out on a Teledyne Isco (Lincoln, NE), Analogix (Burlington, WI), or Biotage (Stockholm, SWE) automated chromatography system using a commercially available cartridge as the column. Columns may be purchased from Teledyne Isco, Analogix, Biotage, Varian (Palo Alto, CA), or Supelco (Bellefonte, PA) and are usually filled with silica gel as the stationary phase. Reverse phase prep-HPLC conditions, where used, can be found at the end of each experimental section. Aqueous solutions were concentrated on a Genevac (Ipswich, ENG) or by freeze-drying/lyophilization. Unless otherwise noted, all LRRK2 pIC50 data presented in tables refers to the LRRK2 G2019S Km ATP LanthaScreen™ assay (Life Technologies Corp., Carlsbad, CA) that is described in the Biological Assay section.
Biological Assay: LRRK2 Km ATP LanthaScreen™ Assay
The LRRK2 kinase activity reported herein as IC50 values was determined with LanthaScreen™ technology from Life Technologies Corporation (Carlsbad, CA) using GST-tagged truncated human mutant G2019S LRRK2 in the presence of the fluorescein-labeled peptide substrate LRRKtide, also from Life Technologies. The data presented for the Km ATP LanthaScreen™ Assay represents mean IC50 values based on several test results and may have reasonable deviations depending on the specific conditions and reagents used. Assays were performed in the presence of 134 μM ATP (Km ATP). Upon completion, the assay was stopped and phosphorylated substrate detected with a terbium (Tb)-labeled anti-pERM antibody (cat. no. PV4898). The compound dose response was prepared by diluting a 10 mM stock of compound to a maximum concentration of 9.99 μM in 100% dimethylsulfoxide followed by custom fold serial dilution in dimethylsulfoxide nine times. Twenty nanoliters of each dilution was spotted via a Labcyte Echo onto a 384-well black-sided plate (Corning 3575) followed by 15 μl of a 1.25 nM enzyme solution in 1× assay buffer (50 mM Tris pH 8.5, 10 mM MgCl2, 0.01% Brij-35, 1 mM EGTA, 2 mM dithiothreitol, 0.05 mM sodium orthovanadate). Following a 15-minute incubation at room temperature, the kinase reaction was started with the addition of 5 μl of 400 nM fluorescein-labeled LRRKtide peptide substrate and 134 μM ATP solution in 1× assay buffer. The reaction was allowed to progress at ambient temperature for 90 minutes. The reaction was then stopped by the addition of 20 μl of TR-FRET Dilution Buffer (Life Technologies, Carlsbad, CA) containing 2 nM Tb-labeled anti-phospho LRRKtide antibody and 10 mM EDTA (Life Technologies, Carlsbad, CA). After an incubation of 1 hour at room temperature, the plate was read on an EnVision multimode plate reader (Perkin Elmer, Waltham, MA) with an excitation wavelength of 337 nm (Laser) and a reading emission at both 520 and 495 nm. Compound IC50s were interpolated from nonlinear regression best fits of the log of the final compound concentration, plotted as a function of the 520/495-nm emission ratio using Activity base. Abase uses a 4 parameter (4P) logistic fit based on the Levenberg-Marquardt algorithm.
For `O=C(Nc1cc2cc(N3CCC(N4CC(F)(F)C4)CC3)c(Cl)cc2cn1)C1CC12CCOCC2` (stereo not drawn) [Ex-4.7], the “LRRK2 pIC50” value was 7.93.
With `CCC1C(C(=O)Nc2cc3cc(N4CCC(F)(C#N)CC4)c(Cl)cc3cn2)C1c1cnn(C)c1` (stereo not drawn) [Ex-4.10] the “LRRK2 pIC50” value was 7.29.
In the case of `Cc1cc2cnc(NC(=O)C3CC3c3ccccn3)cc2cc1N1CCN(C2(C)CCOC2)CC1` (stereo not drawn) [Ex-9.21], the “LRRK2 pIC50” value is reported as 10.09.

Same assay, conditions: 134 μM ATP (Km ATP), LRRKtide substrate, mean of several tests, read-out: LRRK2 pIC50 (converted)
For `CC1COC(=O)N1c1ccc2cnc(NC(=O)C3CC3)cc2c1` (single isomer, unassigned) [Ex-4.1, (R or S)-N-(6-(4-methyl-2-oxooxazolidin-3-yl)isoquinolin-3-yl)cyclopropanecarboxamide], the IC50 was 3.47 nM.
`COC1COCC1(C)N1CCN(c2cc3cc(NC(=O)C4CC45CCOCC5)ncc3cc2Cl)CC1` (single isomer, unassigned) [Ex-5.5] was tested, and the IC50 was 2.63 nM.
`Cn1ncc(C2CC2C(=O)Nc2cc3cc(N4CCN(C5(C)COCC5O)CC4)c(Cl)cc3cn2)n1` (single isomer, unassigned) [Ex-16.1, (1S,2R or 1S,2S)-N-(N-(7-chloro-6-(4-(4-hydroxy-3-methyltetrahydrofuran-3-yl)piperazin-1-yl)isoquinolin-3-yl)-2-(2-methyl-2H-1,2,3-triazol-4-yl)cyclopropane-1-carboxamide] gave an IC50 of 0.145 nM.
Work on `Cc1cc2cnc(NC(=O)C3CCOC(C)(C)C3)cc2cc1N1CCN(C2(C)CCOC2)CC1` (single isomer, unassigned) [Ex-10.41, (4R or 4S)-2,2-dimethyl-N-[7-methyl-6-[4-((R or S)-3-methyltetrahydrofuran-3-yl)piperazin-1-yl]-3-isoquinolyl]tetrahydropyran-4-carboxamide] yielded an IC50 of 0.309 nM.
`CCOC1CC2(C1)CC2C(=O)Nc1cc2cc(N3CCN(C4(C)COCC4F)CC3)c(Cl)cc2cn1` (single isomer, unassigned) [Ex-10.24, (1R,2R or 1S,2S)-N-[7-chloro-6-[4-((3R,4R or 3S,4S)-4-fluoro-3-methyl-tetrahydrofuran-3-yl)piperazin-1-yl]-3-isoquinolyl]-5-ethoxy-spiro[2.3]hexane-2-carboxamide] showed an IC50 of 0.0813 nM.
`C[C@H]1CN(C2(C)COCC2O)CCN1c1cc2cc(NC(=O)C3CC34CCOCC4)ncc2cc1Cl` (single isomer, unassigned) [Ex-14.1, N-(7-chloro-6-((2R or 2S)-4-(4-(3R,4R or 3S,4S)-hydroxy-3-methyltetrahydrofuran-3-yl)-2-methylpiperazin-1-yl)isoquinolin-3-yl)-6-oxaspiro[2.5]octane-1-carboxamide] gave an IC50 of 87.1 nM.
With `Cc1cc2cnc(NC(=O)C3C4CCOCC43)cc2cc1N1CCN(C2(C)CCOC2)CC1` (single isomer, unassigned) [Ex-10.48, (1S,6R,7R, 1R,6S,7R, or 1R, 6S,7S, or 1S,6S,7S)-N-(7-methyl-6-(4-((R or S)-3-methyltetrahydrofuran-3-yl)piperazin-1-yl)isoquinolin-3-yl)-3-oxabicyclo[4.1.0]heptane-7-carboxamide] the IC50 was 17.4 nM.
`CC1(N2CCN(c3cc4cc(NC(=O)C5CC5c5cccs5)ncc4cc3Cl)CC2)COCC1O` (single isomer, unassigned) [Ex-10.14, (1R,2R or 1R,2S)-N-[7-chloro-6-[4-((3R,4R or 3S,4S)-4-hydroxy-3-methyl-tetrahydrofuran-3-yl)piperazin-1-yl]-3-isoquinolyl]-2-(2-thienyl)cyclopropanecarboxamide] gave an IC50 of 4.27 nM.
`CCC1C(C(=O)Nc2cc3cc(N4CCN(C5(C)CCOC5)CC4)c(Cl)cc3cn2)C1c1cnn(C)c1` (single isomer, unassigned) [Ex-9.11] gave an IC50 of 1.15 nM.
With `Cc1cc2cnc(NC(=O)C3CC3c3cnn(C)c3C(F)(F)F)cc2cc1N1CCN(C2(C)CCOC2)CC1` (single isomer, unassigned) [Ex-10.33, (1R,2R or 1S,2S)-N-[7-methyl-6-[4-((R or S)-3-methyltetrahydrofuran-3-yl)piperazin-1-yl]-3-isoquinolyl]-2-[1-methyl-5-(trifluoromethyl)pyrazol-4-yl]cyclopropanecarboxamide] the IC50 was 4.79 nM.
Compound `CC1(c2ccccn2)CC1C(=O)Nc1cc2cc(N3CCN(C4(C)COCC4O)CC3)c(Cl)cc2cn1` (single isomer, unassigned) [Ex-11.1, (1R,2R)(3R,4R)— or (1R,2S)(3R,4R)— or (1S,2R)(3R,4R)— or (1S,2S)(3R,4R)— or (1R,2R)(3S,4S)— or (1R,2S)(3S,4S)— or (1S,2R)(3S,4S)— or (1S,2S)(3S,4S)-N-(7-chloro-6-(4-(4-hydroxy-3-methyltetrahydrofuran-3-yl)piperazin-1-yl)isoquinolin-3-yl)-2-methyl-2-(pyridin-2-yl)cyclopropane-1-carboxamide] has an IC50 of 0.0813 nM.
`CC(C)Cn1nccc1C1CC1C(=O)Nc1cc2cc(N3CCN(C4(C)COCC4O)CC3)c(Cl)cc2cn1` (single isomer, unassigned) [Ex-10.20, (1R,2R or 1S,2S)-N-[7-chloro-6-[4-((3R,4R or 3S,4S)-4-hydroxy-3-methyl-tetrahydrofuran-3-yl)piperazin-1-yl]-3-isoquinolyl]-2-(2-isobutylpyrazol-3-yl)cyclopropanecarboxamide] was tested, and the IC50 was 2.24 nM.
With `CC1(N2CCN(c3cc4cc(NC(=O)C5CC56CCCOC6)ncc4cc3Cl)CC2)COCC1O` (single isomer, unassigned) [Ex-1.16, (1R,3S, or 1R,3R, or 1S,3S, or 1S,3R)-N-(7-chloro-6-(4-((3R,4R or 3S,4S)-4-hydroxy-3-methyltetrahydrofuran-3-yl)piperazin-1-yl)isoquinolin-3-yl)-5-oxaspiro[2.5]octane-1-carboxamide] the IC50 was 112 nM.
With `CC1(N2CCN(c3cc4cc(NC(=O)C5CCC5c5ccccn5)ncc4cc3Cl)CC2)COCC1O` (single isomer, unassigned) [Ex-11.5, (1R,2R or 1S,2S)-N-(7-chloro-6-(4-((3R,4R or 3S,4S)-4-hydroxy-3-methyltetrahydrofuran-3-yl)piperazin-1-yl)isoquinolin-3-yl)-2-(pyridin-2-yl)cyclobutane-1-carboxamide] the IC50 was 0.0813 nM.
`Cn1ncc(C2CC2C(=O)Nc2cc3cc(N4CCN(C5(C)COCC5O)CC4)c(Cl)cc3cn2)n1` (single isomer, unassigned) [Ex-16.2, (1S,2R or 1S,2S)-N-(N-(7-chloro-6-(4-(4-hydroxy-3-methyltetrahydrofuran-3-yl)piperazin-1-yl)isoquinolin-3-yl)-2-(2-methyl-2H-1,2,3-triazol-4-yl)cyclopropane-1-carboxamide] gave an IC50 of 0.0813 nM.
In the case of `CC1(N2CCN(c3cc4cc(NC(=O)C5CC56CC6(F)F)ncc4cc3Cl)CC2)COCC1O` (single isomer, unassigned) [Ex-3.2], the IC50 is reported as 1.07 nM.
In the case of `Cc1cc2cnc(NC(=O)C3C(C)C3c3cnn(C)c3)cc2cc1N1CCN(C2(C)CCOC2)CC1` (single isomer, unassigned) [Ex-9.15], the IC50 is reported as 0.316 nM.
`CC(C)Cn1nccc1C1CC1C(=O)Nc1cc2cc(N3CCN(C4(C)COCC4O)CC3)c(Cl)cc2cn1` (single isomer, unassigned) [Ex-10.19, (1R,2R or 1S,2S)-N-[7-chloro-6-[4-((3R,4R or 3S,4S)-4-hydroxy-3-methyl-tetrahydrofuran-3-yl)piperazin-1-yl]-3-isoquinolyl]-2-(2-isobutylpyrazol-3-yl)cyclopropanecarboxamide] was tested, and the IC50 was 42.7 nM.
